Data from US12102685B2, “Immodulator peptides covalently modified with small molecules” (priority 2020, dated 2024).
Marks after values point to notes of the source that are not given here. Peptide text beside a SMILES is read from it.

Experiments:
[1] = Strength of binding to iron, plate assay (x2E b); conditions: 1 ug/well peptide complexed to Alexa-488-streptavidin; ferric iron
Method: Immodulator peptides were extended C-terminally by three amino acids, to include a valine residue that is highly conserved in the “thyroglobulin type 1 motif”. The reasoning behind this attempt is that a longer conserved sequence might lead to a tighter fold overall, which might in turn result in increased metal-binding avidity. • (b) Strength of binding to iron was evaluated by plate assay.
(§1) Experiments were conducted by the procedure described above. Ferric iron-charged NTA-coated 96-well plates were used as described. 1 ug/well immodulator peptide complexed to Alexa-488-labeled streptavidin in PBS buffer was added (60 min at room temperature). The plate was washed and counted in a standard fluorometer (excitation/emission: 485/525 nm). The results (fluorescence) show improved iron-binding by the three peptides extended C-terminally by the AVD, (dA)VD, and FVS tripeptides. **p<0.01 vs IM3 control IM3: 200±29; IM4: 45±37**; IM5: 130±77; IM3AVD: 434±29**; IM3dAVD: 418±28**; IM3FVS: 371±33** • (c) Competition assay. The same procedure was used as the preceding experiment, except that 375 ng/well labeled IM3 peptide was used, plus 10× of the indicated unlabeled peptide. ‘No competing peptide’ control value was set to 100. *p<0.05 vs “no peptide” control Competing Peptide/Fluorescence • None: 100±38; IM4: 125±26; IM3: 63±27*; IM5: 40±14*; IM3AVD: 10±28* • (d) Competition assay. The same procedure was used as the preceding experiment, except that labeled IM3AVD peptide was used. **p<0.01 vs “no competing peptide” control • None: 100±9; IM4: 144±44; IM3: 35±16**; IM5: 30±19**; IM3AVD: 9±19** • (e) The same procedure was used as the preceding experiment, except that each peptide was labeled with Alexa-488-labeled streptavidin in PBS buffer and used separately. Binding to IM3 was set to =100. *p<0.05, **p<0.01 vs IM3 control. (Labeled Peptide/Fluorescence) IM1: 1.8±0.4**; IM2: 3.0±1.8**; IM3: 100.0±16.8; IM4: 7.2±1.7*; IM5: 86.7±6.4; IM6: 85.9±14.9; IM3AVD:137.7±11.8*; IM3dAVD:147.4±22.9*; IM3FVS: 101.5±10.5.

[2] = Iron-binding competition assay with labeled IM3 (x2E c); conditions: 375 ng/well labeled IM3 plus 10x unlabeled peptide; no competing peptide = 100
Method: as §1

[3] = Iron-binding competition assay with labeled IM3AVD (x2E d); conditions: labeled IM3AVD plus 10x unlabeled peptide; no competing peptide = 100
Method: as §1

[4] = Iron binding of separately labeled peptides (x2E e); conditions: each peptide labeled separately; IM3 = 100; ferric iron
Method: as §1

A375 cells = assay: A375 cell viability, CellTiterGlo (x10A); type: cell-based; conditions: 72 hours
Method: (§2) Immune modulation functions of immodulator peptides have great potential untility in the field of cancer. A375 cell line was obtained from American Type Culture Collection (ATCC). They were grown in a T-75 flask in DMEM Medium containing 10% fetal bovine serum and penicillin-streptomycin at 37° C. in a humidified, 5% CO2 incubator. Cells ([…], 2,000 cells/well) were plated in a 96-well plate and incubated overnight at 37° C. in a humidified, 5% CO2 incubator. Next day, […] of compounds were added (quadruplicate wells). After 72 hour incubation with the compound, cell viability was measured in a luminometer after the addition of […] CellTiterGlo reagent (Promega Inc, Madison, WI) as recommended by the manufacturer.
Experiment x10A. Anti-cancer activity of immodulator peptides on A375 cells. A 96-well plate was seeded with 2,000 A375 cells per well in DMEM medium containing 10% FBS and PenStrep. After 24 hrs at 37 deg C., compounds and peptides were added (each treatment done in quadruplicate). After a further 72 hours incubation, 100 uL/well of CTG assay reagent purchased from Promega Inc. (Madison, WI) was added. Plate was read after 10 minutes, as recommended by the manufacturer. Peptides were added at 2 uM. The results of this experiment are shown below, expressed as percent survival ofA375 cells.

[5] = Alexa488-SA-labelled IM1-IM6 binding to metal-charged NTA-coated plate (x2B d); conditions: no peptide background = 1.0
Method: NTA-metal-affinity fluorescence assay was performed using 96-well NTA-metal-coated plates readily available from commercial sources such as Qiagen (Germantown, MD). NTA was charged with ferrous or ferric iron, zinc, copper, calcium, vanadium, ruthenium, cobalt, titanium, manganese or other metals. 400 ng of FITC-labeled immodulator peptide (or biotinylated immodulator peptide complexed to Alexa-488-labeled streptavidin) in PBS buffer was added per plate. After incubation at room temperature for 60 minutes, excess peptide was washed off and peptide was detected by measuring fluorescence (excitation 490 nm, emmission 525 nm) in a fluorometer. • (a) Using FITC-labeled IM3 peptide (1 ug/well) in the fluorescent binding assay: • EDTA-treated control: 2,251±1,186 • Ferrous iron: 170,441±11,264 (p<0.001)* • Copper: 13,644±5566 (p<0.05)* • Calcium: 48,822±11,990 (p<0.01)* • *p values are relative to EDTA-treated control • (b) Competition binding assay to ferrous iron, calcium, copper and zinc-charged NTA-coated plates using FITC-labeled IM3 peptide (0.5 uM) and 8× (4 uM) unlabelled competitor peptides IM3N1, IM3N2 (*all comparisons to PBS control are p<0.01); # fluorescent value of binding to […] was set at 100.
Ferrous iron # (100±2.6*); Control (no metal): 6.4±3.1; Ferric iron: 94.1±6.6*; Calcium: 47.6±3.7*; Vanadium: 53.9±5.5*; Manganese: 54.4±11.2*; Cobalt: 25.4±2.3*; Copper: 58.4±6.4*; Zinc: 71.4±8.3*; Ruthenium: 67.8±8.3*; (d) Alexa488-SA-labelled immodulator peptide IM1, IM2, IM3, IM4, IM5, IM6 (400 ng/well) were bound to NTA-coated plate charged with the indicated metals: # background (no peptide) control set to 1.0;*p<0.05, **p<0.01 vs “no peptide”

[6] = biological target: T1, AA111-228 DNA-binding domain of RXR-alpha (RXRa-DBD) (Homo sapiens, UniProt P19793); assay: Binding to RXRa-DBD (x3A); conditions: 1 ug/well RXRa-DBD, 800 ng/well SA488-labelled peptide; background subtracted
T1 construct: purchased Abcam, Cambridge, MA
T1 sequence (P19793 111-228): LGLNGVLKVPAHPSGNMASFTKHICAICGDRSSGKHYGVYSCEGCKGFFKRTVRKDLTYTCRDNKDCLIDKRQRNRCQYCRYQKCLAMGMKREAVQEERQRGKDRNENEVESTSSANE
Method: Binding of immodulator peptides to AA111-228 DNA-binding domain of RXR-alpha (RXRa-DBD). 1 ug/well recombinant RXRa-DBD (Abcam, Cambridge, MA) was adsorbed to wells of a 96-well plate for 60 minutes at RT, then blocked with 200 uL 1% BSA in PBS buffer overnight. Plate was washed and 800 ng/well Streptavidin-Alexa 488 conjugate (SA488)-labelled IM peptide was added. The plate was incubated for 60 min at room temperature, washed and counted in a standard fluorometer (excitation/emission 485/525 nm). Background (buffer alone) was subtracted.

[7] = Binding to heparin-agarose spin column (x3D); conditions: 1 ug SA488-labelled peptide
Method: 1 ug Streptavidin-Alexa 488 conjugate (SA488)-labelled IM peptide in PBS buffer was loaded on a spin column packed with 0.2 ml bed volume heparin-agarose (G-Biosciences, St. Louis, MO). The column was centrifuged for 2 min at 2,000 G and the flow-through was collected. The column was then washed with 0.3 ml 1% BSA in PBS buffer and the column spin repeated. Flowthrough and wash were pooled and duplicate 20 uL aliquots counted in a standard fluorometer (excitation/emission 485/525 nm). Results are expressed as percentage of input counts that bound the heparin-agarose column, versus flowthrough. Percent counts bound to heparin-agarose resin are shown below. IM3, IM5 and IM6 peptides bind heparin-agarose in this assay.

[8] = Binding to Echelon PPI Arrays (x9B); design: key: 0=no binding; 1=low binding; 2=medium binding; 3=high binding; conditions: 100 pmol PPI spot, colorimetric readout
From the text: Binding of immodulator peptides to Echelon PPI Arrays. PPI arrays were purchased from Echelon Biosciences (Sal Lake City, UT) and used according to the manufacturer's recommendations. Colorimetric readout from each 100 pmol PPI spot in the array is expressed as 0=no binding, 1=low binding, 2=medium binding and 3=high binding. […] In addition, IM3 and IM5 show slight binding to PI(3,4,5)P3.

[9] = tested on: COL1 in HFF-1 dermal fibroblasts; assay: Collagen-1 ELISA in HFF-1 dermal fibroblasts (x11A); type: cell-based; conditions: peptide 2 uM, 72 hour; control (buffer) = 100
Method: as §2, with “have” for “have great”, “cosmetics. HFF-1” for “cancer. A375”, “Cells” for “They”, “compound, supernatants were collected for Collagen-1 ELISA assay and” for “compound,”
Collagen stimulating activity of immodulator peptides in HFF-1 dermal fibroblasts. Peptides were added to cells at 2 uM. COL1 immunoreactivity was measured in the supernatants of cultured cells by ELISA using a rabbit monoclonal anti-COL1 primary antibody (Abcam, Cambridge, MA). Control (buffer) value of immunoreactivity was set to 100.

Row | fluorescence (iron binding) [1] | fluorescence of labeled IM3 with competing peptide [2] | fluorescence of labeled IM3AVD with competing peptide [3] | fluorescence of labeled peptide [4] | fluorescence ([5]; Calcium) | fluorescence ([5]; Copper) | fluorescence ([5]; Ferrous iron, 400 ng/well) | fluorescence ([5]; Zinc) | fluorescence [6] | Percent Flowthrough [7] [%] | Percent retained [7] [%] | binding to PI spot [8] | binding to PI(3,4,5)P3 spot [8] | binding to PI(4)P1 spot [8] | binding to PI(4,5)P2 spot [8] | Structure (SMILES) | percent survival of A375 cells (A375 cells; peptide 2 uM + Kin1400 4 uM (RIG-I agonist)) | percent survival of A375 cells (A375 cells; peptide 2 uM, Buffer) [%] | COL1 immunoreactivity in supernatant [9]
1 | 434±29 | 10±28 | 9±19 | 137.7±11.8 |  |  |  |  |  |  |  |  |  |  |  | CC(C)[C@H](NC(=O)[C@H](C)NC(=O)[C@H](Cc1c[nH]c2ccccc12)NC(=O)[C@H](CS)NC(=O)[C@H](Cc1ccccc1)NC(=O)CNC(=O)[C@H](CCCNC(=N)N)NC(=O)[C@H](CCCCN)NC(=O)[C@H](CCCNC(=N)N)NC(=O)CNC(=O)[C@H](CCCCN)NC(=O)[C@H](CO)NC(=O)[C@@H]1CCCN1C(=O)[C@H](CCCNC(=N)N)NC(=O)[C@H](CS)NC(=O)[C@H](CCC(N)=O)NC(=O)[C@H](CCCCN)NC(=O)[C@H](CCCCN)NC(=O)[C@H](CCCCN)NC(=O)[C@H](Cc1ccc(O)cc1)NC(=O)[C@H](Cc1ccccc1)NC(=O)CNC(=O)[C@H](CCCCN)NC(=O)[C@@H](N)CCCCN)C(=O)N[C@@H](CC(=O)O)C(=O)O [IM3AVD] (H-KKGFYKKKQCRPSKGRKRGFCWAVD-OH; N-terminus and C-terminus assumed) | 12.5** percent | 96.0 | 
2 |  |  |  | 85.9±14.9 | 15.1 ± 1.9** | 2.4 ± 2.4** | 20.6 ± 0.8** | 8.4 ± 0.4** | 587±192 | 2.0 | 98.0 | 0 | 0 | 0 | 1 | N=C(N)NCCC[C@H](NC(=O)[C@H](CCCNC(=N)N)NC(=O)[C@H](CCC(N)=O)NC(=O)CNC(=O)[C@H](CCC(N)=O)NC(=O)[C@H](CO)NC(=O)[C@H](CO)NC(=O)[C@H](CCCNC(=N)N)NC(=O)[C@H](CS)NC(=O)[C@H](CCC(N)=O)NC(=O)[C@H](CCCNC(=N)N)NC(=O)[C@H](CCCCN)NC(=O)[C@H](CCCNC(=N)N)NC(=O)[C@H](Cc1ccc(O)cc1)NC(=O)[C@H](Cc1ccccc1)NC(=O)CNC(=O)[C@H](CCCNC(=N)N)NC(=O)[C@@H](N)Cc1c[nH]cn1)C(=O)NCC(=O)N1CCC[C@H]1C(=O)N[C@@H](CS)C(=O)N[C@@H](Cc1c[nH]c2ccccc12)C(=O)O [IM6] (H-HRGFYRKRQCRSSQGQRRGPCW-OH; N-terminus and C-terminus assumed) |  |  | 112
